The values below come from patent US9173912B2 (priority 2008, dated 2015).

In brackets after ≈: the same amount, converted by molar mass.

The test system of test [1] is herpes simplex viruses type 1 (HSV-1). In words: Virucidal activity: viral suspension exposed to extract, then infectiousness in cells measured. In kind it is cell-based. The note with it: Herpes Simplex Virus I. The method, then:
(§1) In addition, a quite universal usability of the invented extract on viral diseases could be shown with herpes simplex viruses type 1 (HSV-1):
In order to define the virucidal activity, a viral suspension is exposed to the extract and then the infectiousness of viruses in the cells is measured. Ethanol is used for positive controls.

Test [2] has the same test system. Briefly: Virustatic activity: supernatant of infected human cells after inoculation with extract. The class given is cell-based.
Source text: as §1
The definition of virustatic activity is then identified via the supernatant of infected human cells after inoculation with extract. Aciclovir is the accepted positive control.

A short description of test [3]: Inactivation of superoxide anions after stimulation with PMA (colour reduction). Particulars: test concentration 200 μg/ml, versus untreated control (0% inactivation). As to the method: The concentration of oxygen radicals (superoxide anions) is regarded as measure for oxidative stress in organic tissues. By means of quantifying superoxide anions with a color reduction after stimulating with phorbol-12-myristat-13-acetate (PMA), the following antioxidative capacities have been recorded (test concentration 200 μg/ml) in comparison to an untreated control (0% inactivation): […]

For test [4], the target named is neuraminidase of Clostridium perfringens. Particulars: read-out: IC 50 neuraminidase, Zanamivir column.

For `Nc1nc2c(ncn2COCCO)c(=O)[nH]1` [Aciclovir], the “IC 50 Virucidal” value in test [1] is given as “ineffective”. For the same molecule, the IC50 in test [2] (Human alphaherpesvirus 1, Herpes Simplex Virus I, read-out: IC 50 Virustatic) worked out at 0.0002 mg/mL (≈ 0.000888 mM).
Regarding `CCO` [Ethanol], in test [1] (Human alphaherpesvirus 1, read-out: IC 50 Virucidal), the IC50 was 80 mg/mL (≈ 1740 mM). The “IC 50 Virustatic” value in test [2] (Herpes Simplex Virus I) is “ineffective”.
As for `O=C1O[C@H]([C@@H](O)CO)C(O)=C1O` [Vitamin C], the “Antioxidative capacity, inactivation of superoxide anions” value in test [3] stood at 96.6%.
As for `CC(=O)N[C@H]1[C@H]([C@H](O)[C@H](O)CO)OC(C(=O)O)=C[C@@H]1N=C(N)N` [Zanamivir], the IC50 in test [4] was above 200 µM.
